Peptide text beside a SMILES is read from it.
Tests used:
[1] = Inhibition of TNF-alpha (unknown origin) binding to TNFR1 assessed as dissociation constant of TNF-alpha preincubated for 15 mins by MST assay (Rvb = 13.4 nM)
[2] = Inhibition of TNF-alpha (unknown origin) binding to TNFR2 assessed as dissociation constant of TNF-alpha preincubated for 15 mins by MST assay (Rvb = 30.5 nM)

Kd [1]: 996 nM
Kd [2]: 321 nM
Compound: C[C@H](N)C(=O)N[C@@H](CS)C(=O)N[C@@H](Cc1cnc[nH]1)C(=O)N[C@@H](C)C(=O)N[C@@H](Cc1c[nH]c2ccccc12)C(=O)N[C@@H](C)C(=O)N1CCC[C@H]1C(=O)N[C@H](C(=O)N[C@@H](CCCNC(=N)N)C(=O)O)[C@@H](C)O (H-ACHAWAPTR-OH)

Source: BindingDB's records for PubMed 37191335 (Tongji University, 2023)
